This assay has as its system CD2F1 mice, L1210 leukemia ip, survival T/C. Kind of assay: NCI In Vivo Anticancer Drug Screen. Data for tumor model L1210 Leukemia (intraperitoneal) in CD2F1 (CDF1) mice. As to conditions: higher = longer survival. An outline of the steps: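 Mice carrying a transplanted tumor received test compound or vehicle alone. The value is the measurement in the treated group divided by that in the vehicle-treated control group.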

The mark [1] stands for this setting: endpoint: mean survival time, dose: 100.0 mg/kg/injection, schedule: Q01DX001 (ip), vehicle: saline with Tween-80.
The mark [2] stands for this setting: endpoint: mean survival time, dose: 200.0 mg/kg/injection, schedule: Q01DX001 (ip), vehicle: saline with Tween-80.
Setting [3] is: endpoint: mean survival time, dose: 400.0 mg/kg/injection, schedule: Q01DX001 (ip), vehicle: saline with Tween-80.
[4] abbreviates: endpoint: mean survival time, dose: 100.0 mg/kg/injection, schedule: Q01DX009 (ip), vehicle: saline with Tween-80.
The mark [5] stands for this setting: endpoint: mean survival time, dose: 100.0 mg/kg/injection, schedule: Q04DX003 (ip), vehicle: saline with Tween-80.
Where [6] appears, read: endpoint: mean survival time, dose: 200.0 mg/kg/injection, schedule: Q01DX009 (ip), vehicle: saline with Tween-80.
Where [7] appears, read: endpoint: mean survival time, dose: 200.0 mg/kg/injection, schedule: Q04DX003 (ip), vehicle: saline with Tween-80.
Setting [8] is: endpoint: mean survival time, dose: 400.0 mg/kg/injection, schedule: Q04DX003 (ip), vehicle: saline with Tween-80.
Where [9] appears, read: endpoint: mean survival time, dose: 50.0 mg/kg/injection, schedule: Q01DX009 (ip), vehicle: saline with Tween-80.

SMILES strings stand for the structures. Values joined by “and” are separate entries in the source; they are usually repeats but may differ in a detail not shown here. Equal entries are not always repeated. Inconclusive results and toxic doses are left out.

Consider 19 molecules from PubChem BioAssay AID256 (DTP/NCI, 2004).

As to `C[C@@](O)(/C=C/[C@H]1CC=CC(=O)O1)[C@@H](C[C@@H](O)\C=C/C=C\C=C\CO)OP(=O)(O)O`, the T/C (endpoint: median survival time, dose: 0.4 mg/kg/injection, schedule: Q01DX005 (iv), vehicle: other) is 109 % of control; the T/C (endpoint: median survival time, dose: 0.78 mg/kg/injection, schedule: Q01DX005 (iv), vehicle: other) was 109 % of control; the T/C (endpoint: median survival time, dose: 1.56 mg/kg/injection, schedule: Q01DX005 (iv), vehicle: other) is 112 % of control; the T/C (endpoint: median survival time, dose: 1.56 mg/kg/injection, schedule: Q01DX005 (iv), vehicle: saline) is 121 % of control; the T/C (endpoint: median survival time, dose: 1.56 mg/kg/injection, schedule: Q01DX009 (ip), vehicle: other) was 243 % of control; the T/C (endpoint: median survival time, dose: 1.56 mg/kg/injection, schedule: Q01DX009 (ip), vehicle: saline) was 216 % of control. For the same molecule, the T/C by setting is: (endpoint: median survival time, dose: 3.12 mg/kg/injection, schedule: Q01DX009 (ip), vehicle: other) 170 % of control and 191 % of control; (endpoint: median survival time, dose: 3.12 mg/kg/injection, schedule: Q01DX009 (ip), vehicle: saline) 204 % of control; (endpoint: median survival time, dose: 3.13 mg/kg/injection, schedule: Q01DX005 (iv), vehicle: other) 123 % of control; (endpoint: median survival time, dose: 3.13 mg/kg/injection, schedule: Q01DX009 (ip), vehicle: other) 235 % of control; (endpoint: median survival time, dose: 6.25 mg/kg/injection, schedule: Q01DX005 (iv), vehicle: other) 162 % of control; (endpoint: median survival time, dose: 6.25 mg/kg/injection, schedule: Q01DX009 (ip), vehicle: other) 194 % of control and 207 % of control and 512 % of control. The T/C by setting is: (endpoint: median survival time, dose: 6.25 mg/kg/injection, schedule: Q01DX009 (ip), vehicle: saline) 216 % of control; (endpoint: median survival time, dose: 12.5 mg/kg/injection, schedule: Q01DX005 (iv), vehicle: other) 197 % of control; (endpoint: median survival time, dose: 12.5 mg/kg/injection, schedule: Q01DX005 (iv), vehicle: saline) 178 % of control; (endpoint: median survival time, dose: 12.5 mg/kg/injection, schedule: Q01DX009 (ip), vehicle: other) 117 % of control and 337 % of control; (endpoint: median survival time, dose: 12.5 mg/kg/injection, schedule: Q01DX009 (ip), vehicle: saline) 722 % of control; (endpoint: median survival time, dose: 25.0 mg/kg/injection, schedule: Q01DX005 (iv), vehicle: other) 259 % of control. For the same molecule, the T/C was 201 % of control (endpoint: median survival time, dose: 25.0 mg/kg/injection, schedule: Q01DX005 (iv), vehicle: saline); 273 % of control (endpoint: median survival time, dose: 25.0 mg/kg/injection, schedule: Q01DX009 (ip), vehicle: other); 240 % of control (endpoint: median survival time, dose: 50.0 mg/kg/injection, schedule: Q01DX005 (iv), vehicle: saline).
Regarding `COc1c(Cl)c(=O)oc2ccc(Cl)cc12`, the T/C is 93 % of control under setting [1], 90 % of control under setting [2] and 88 % of control under setting [3].
`O=C1c2ccccc2C(=O)N1C1C=CC=CC=C1`: the T/C by setting is: under setting [4], 95 % of control; under setting [5], 104 % of control; under setting [6], 93 % of control; under setting [7], 97 % of control; (endpoint: mean survival time, dose: 400.0 mg/kg/injection, schedule: Q01DX009 (ip), vehicle: saline with Tween-80) 96 % of control; under setting [8], 97 % of control.
Turning to `N#CSCCOCCSC#N`, the T/C (endpoint: mean survival time, dose: 2.5 mg/kg/injection, schedule: Q04DX003 (ip), vehicle: saline with Tween-80) is 100 % of control and the T/C (endpoint: mean survival time, dose: 5.0 mg/kg/injection, schedule: Q04DX003 (ip), vehicle: saline with Tween-80) was 96 % of control.
Take `OCc1ccc(Cl)c(Cl)c1`: the T/C reads like this: under setting [5], 97 % of control; under setting [7], 102 % of control; under setting [8], 96 % of control.
On to `O=C(Nc1nccs1)c1ccc(Cl)cc1`, for which the T/C was 96 % of control under setting [9], 96 % of control under setting [4] and 92 % of control under setting [6].
For `O=C1C=CC(=O)C(SCCC(=O)O)=C1`, the T/C is, setting by setting: (endpoint: mean survival time, dose: 50.0 mg/kg/injection, schedule: Q04DX003 (ip), vehicle: saline with Tween-80) 94 % of control; under setting [5], 96 % of control; under setting [7], 111 % of control.
Take `O=C1C(c2ccccc2)CN1C1CCCCC1` (stereo not given): the T/C is, setting by setting: (endpoint: mean survival time, dose: 100.0 mg/kg/injection, schedule: Q01DX001 (ip), vehicle: saline) 104 % of control; (endpoint: mean survival time, dose: 200.0 mg/kg/injection, schedule: Q01DX001 (ip), vehicle: saline) 101 % of control; (endpoint: mean survival time, dose: 400.0 mg/kg/injection, schedule: Q01DX001 (ip), vehicle: saline) 87 % of control.
For the molecule `CC(C)(C)OC(=O)NC(Cc1cn(Cc2ccccc2)cn1)C(=O)O` (stereo not given), the T/C under setting [5] is 95 % of control, the T/C under setting [7] is 101 % of control and the T/C under setting [8] is 93 % of control.
Take `CSc1nc(Cl)c2cc(Cl)[nH]c2n1`: the T/C is 104 % of control (endpoint: median survival time, dose: 1.5 mg/kg/injection, schedule: Q01DX009 (ip), vehicle: saline with Tween-80); 107 % of control (endpoint: median survival time, dose: 3.0 mg/kg/injection, schedule: Q01DX009 (ip), vehicle: saline with Tween-80); 110 % of control (endpoint: median survival time, dose: 6.0 mg/kg/injection, schedule: Q01DX009 (ip), vehicle: saline with Tween-80); 100 % of control (endpoint: median survival time, dose: 50.0 mg/kg/injection, schedule: Q01DX005 (ip), vehicle: saline with Tween-80); 101 % of control (endpoint: median survival time, dose: 100.0 mg/kg/injection, schedule: Q01DX005 (ip), vehicle: saline with Tween-80).
Consider `CC(=O)Nc1cccc2ccc3c4ccccc4ccc3c12`, for which the T/C by setting is: under setting [5], 86 % of control; under setting [7], 89 % of control; under setting [8], 98 % of control.
Consider `Cc1cc(=O)c2c(=O)[nH][nH]c2[nH]1`, for which the T/C is 98 % of control under setting [4] and 104 % of control under setting [6].
On to `Cc1nc(-c2ccccc2)nc2c1CCO2`, for which the T/C is 102 % of control under setting [5], 100 % of control under setting [7] and 105 % of control under setting [8].
As to `O=C1C=C(C2OC(CO)C(O)C2O)C(=O)N1` (stereo not given), the T/C reads like this: (endpoint: mean survival time, dose: 5.0 mg/kg/injection, schedule: Q01DX009 (ip), vehicle: saline with Tween-80) 106 % of control; (endpoint: mean survival time, dose: 10.0 mg/kg/injection, schedule: Q01DX009 (ip), vehicle: saline with Tween-80) 111 % of control; (endpoint: mean survival time, dose: 20.0 mg/kg/injection, schedule: Q01DX009 (ip), vehicle: saline with Tween-80) 111 % of control.
`COC(=O)NCCCCl`: the T/C is, setting by setting: (endpoint: mean survival time, dose: 37.5 mg/kg/injection, schedule: Q01DX007 (ip), vehicle: saline) 94 % of control; (endpoint: mean survival time, dose: 75.0 mg/kg/injection, schedule: Q01DX007 (ip), vehicle: saline) 103 % of control; (endpoint: mean survival time, dose: 150.0 mg/kg/injection, schedule: Q01DX007 (ip), vehicle: saline) 97 % of control; (endpoint: mean survival time, dose: 300.0 mg/kg/injection, schedule: Q01DX007 (ip), vehicle: saline) 94 % of control; (endpoint: mean survival time, dose: 600.0 mg/kg/injection, schedule: Q01DX007 (ip), vehicle: saline) 94 % of control.
Regarding `NC(=S)N/N=C/c1ccc(-c2ccccc2)cc1`, under setting [5], the T/C is 97 % of control.
Consider `CCOc1ccc(N=Nc2sc(N)nc2-c2cccc([N+](=O)[O-])c2)cc1`, for which the T/C reads like this: under setting [1], 89 % of control; under setting [2], 96 % of control; under setting [3], 96 % of control.
As to `COC(=Nc1ccccc1)SSC(C)C`, the T/C is 93 % of control and 101 % of control (endpoint: mean survival time, dose: 6.25 mg/kg/injection, schedule: Q01DX009 (ip), vehicle: saline with Tween-80); 97 % of control and 108 % of control (endpoint: mean survival time, dose: 12.5 mg/kg/injection, schedule: Q01DX009 (ip), vehicle: saline with Tween-80); 98 % of control and 104 % of control (endpoint: mean survival time, dose: 25.0 mg/kg/injection, schedule: Q01DX009 (ip), vehicle: saline with Tween-80); 98 % of control and 108 % of control under setting [9]; 106 % of control under setting [4]; 108 % of control under setting [6].
On to `COC1C(C)OC(OC2CC(C)(O)C(C(=O)O)c3cc4c(c(O)c32)C(=O)c2c(O)cc3c(c2C4=O)OC2OC3(C)C(O)C(N(C)C)C2O)C(OC)C1(C)OC` (stereo not given), for which the T/C by setting is: (endpoint: mean survival time, dose: 5.0 mg/kg/injection, schedule: Q01DX009 (ip), vehicle: other) 113 % of control; (endpoint: mean survival time, dose: 10.0 mg/kg/injection, schedule: Q01DX009 (ip), vehicle: other) 107 % of control; (endpoint: mean survival time, dose: 10.0 mg/kg/injection, schedule: Q04DX003 (ip), vehicle: other) 113 % of control; (endpoint: mean survival time, dose: 20.0 mg/kg/injection, schedule: Q01DX009 (ip), vehicle: other) 118 % of control; (endpoint: mean survival time, dose: 20.0 mg/kg/injection, schedule: Q04DX003 (ip), vehicle: other) 113 % of control; (endpoint: mean survival time, dose: 40.0 mg/kg/injection, schedule: Q04DX003 (ip), vehicle: other) 117 % of control. Under “endpoint: mean survival time, dose: 80.0 mg/kg/injection, schedule: Q04DX003 (ip), vehicle: other”, the T/C was 115 % of control.
